Test results from US20250188044A1 (HARBIN MEDISAN PHARMACEUTICAL CO., LTD., priority 2021, published 2025).
Like-named read-outs stand apart in the source and are kept apart here.

Assays:
Type in all cases: cell-based
PPARα = target: T1, PPARα (Homo sapiens, UniProt Q07869); test: Gal4-PPARα(LBD) reporter gene agonistic activity assay in Cos-7 cells; conditions: for EC50: Cos-7 cells, Gal4-PPARα(LBD) reporter, 16 h, 100% = GW7647 10 nM; for agonistic activity for PPARα (EC50 level, in words): Cos-7 reporter assay
T1 construct: hPPARα (279aa-580aa); expressed in transfected cells; host or cells: Cos-7
T1 sequence (Q07869 167-468 limits assumed): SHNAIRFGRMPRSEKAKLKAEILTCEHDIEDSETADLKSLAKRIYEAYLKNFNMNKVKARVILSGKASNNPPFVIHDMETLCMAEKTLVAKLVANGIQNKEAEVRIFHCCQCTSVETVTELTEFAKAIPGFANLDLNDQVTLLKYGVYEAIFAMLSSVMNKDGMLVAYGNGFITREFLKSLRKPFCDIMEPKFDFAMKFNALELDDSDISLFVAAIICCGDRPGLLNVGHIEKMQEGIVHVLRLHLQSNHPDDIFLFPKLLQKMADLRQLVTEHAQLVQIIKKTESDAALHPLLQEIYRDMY
Protocol: (§1) Cos-7 cells (African green monkey kidney fibroblasts, commonly used tool cells) were cultured in a 10 cm cell culture dish in a DMEM complete medium containing 10% fetal bovine serum. When the cells grew to a density of about 70%, the medium was replaced with a fresh medium for later transfection. […] The plasmid working solution was then added to the cell culture dish for cell transfection. […] Test compounds were prepared into appropriate test concentrations with a complete medium and then added to the 96-well plate. […] 10 μL of lysate was pipetted into a white opaque 384-well plate, and then 10 μL of reporter gene assay buffer (purchased from Shanghai Beyotime Biological Tech. Co., Ltd.) was added. The bioluminescence was detected by using a multimode microplate reader, and the corresponding half maximal effective concentration (EC50) value was calculated according to the detection value.

PPARδ = target: T2, PPARδ (Homo sapiens, UniProt Q03181); test: Gal4-PPARδ(LBD) reporter gene agonistic activity assay in Cos-7 cells; conditions: for agonistic activity for PPARδ (EC50 level, in words): Cos-7 reporter assay
T2 construct: expressed in transfected cells; host or cells: Cos-7
T2 sequence (Q03181 139-441 limits assumed): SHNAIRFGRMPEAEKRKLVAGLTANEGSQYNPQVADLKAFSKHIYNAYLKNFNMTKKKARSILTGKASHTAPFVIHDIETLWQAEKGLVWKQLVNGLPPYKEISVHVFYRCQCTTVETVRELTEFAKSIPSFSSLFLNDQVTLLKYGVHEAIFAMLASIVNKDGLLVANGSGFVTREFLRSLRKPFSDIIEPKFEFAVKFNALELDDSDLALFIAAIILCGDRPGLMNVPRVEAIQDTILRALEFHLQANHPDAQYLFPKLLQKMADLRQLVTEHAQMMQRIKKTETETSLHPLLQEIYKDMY
Protocol: as §1

PPARγ = target: T3, PPARγ (Homo sapiens, UniProt P37231); test: Gal4-PPARγ(LBD) reporter gene agonistic activity assay in Cos-7 cells
T3 construct: hPPARγ (281aa-554aa); expressed in transfected cells; host or cells: Cos-7
T3 sequence (P37231 232-505 limits assumed): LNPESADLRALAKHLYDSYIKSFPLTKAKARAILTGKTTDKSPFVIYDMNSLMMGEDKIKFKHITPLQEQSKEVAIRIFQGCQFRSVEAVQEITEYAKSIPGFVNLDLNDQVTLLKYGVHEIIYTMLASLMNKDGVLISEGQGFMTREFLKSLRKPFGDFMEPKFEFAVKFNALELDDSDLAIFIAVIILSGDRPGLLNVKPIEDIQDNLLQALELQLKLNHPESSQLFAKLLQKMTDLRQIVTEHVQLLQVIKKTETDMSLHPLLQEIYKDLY
Protocol: as §1

[1] = Cos-7 cells, Gal4-PPARγ(LBD) reporter, 16 h, 100% = Rosiglitazone 1 μM
[2] = Cos-7 cells, Gal4-PPARδ(LBD) reporter, 16 h, 100% = GW501516 10 nM

[2H]C([2H])(c1cc(C)c(OC(C)(C)C(=O)O)c(C)c1)n1ncn(-c2ccc(C(F)(F)F)cc2)c1=O [Compound 187, 2-(2,6-Dimethyl-4-((5-oxo-4-(4-(trifluoromethyl)phenyl)-4,5-dihydro-1H-1,2,4-triazol-1-yl)methyl-d2)phenoxy)-2-methylpropionic acid]
EC50 (PPARα): 0.01 µM | agonistic activity for PPARα (EC50 level, in words) (PPARα): at nanomolar levels | EC50 (PPARδ): 0.007 µM | agonistic activity for PPARδ (EC50 level, in words) (PPARδ): at nanomolar levels

Cc1cc(Cn2ncn(-c3ccccc3)c2=O)cc(C)c1OC(C)(C)C(=O)O [Compound 63, 2-(2,6-Dimethyl-4-((5-oxo-4-phenyl-4,5-dihydro-1H-1,2,4-triazol-1-yl)methyl)phenoxy)-2-methylpropionic acid]
EC50 (PPARα): 1.03 µM | EC50 (PPARγ): 8.65 µM

CC(C)(Oc1ccc(Cn2ncn(-c3ccc(OC(F)(F)F)cc3)c2=O)cc1C(F)(F)F)C(=O)O [Compound 157, 2-Methyl-2-(4-((5-oxo-4-(4-(trifluoromethoxy)phenyl)-4,5-dihydro-1H-1,2,4-triazol-1-yl)methyl)-2-(trifluoromethyl)phenoxy)propionic acid]
EC50 (PPARα): 0.273 µM | EC50 (PPARγ; [1]): 1.66 µM

CCOc1ccc(-n2cnn(Cc3cc(C)c(OC(C)(C)C(=O)O)c(C)c3)c2=O)cc1 [Compound 69, 2-(4-((4-(4-Ethoxyphenyl)-5-oxo-4,5-dihydro-1H-1,2,4-triazol-1-yl)methyl)-2,6-dimethylphenoxy)-2-methylpropionic acid]
EC50 (PPARα): 0.033 µM | EC50 (PPARδ; [2]): 0.481 µM

Cc1cc(CCn2ncn(-c3ccc(C(F)(F)F)cc3)c2=O)cc(C)c1OC(C)(C)C(=O)O [Compound 194, 2-(2,6-Dimethyl-4-(2-(5-oxo-4-(4-(trifluoromethyl)phenyl)-4,5-dihydro-1H-1,2,4-triazol-1-yl)ethyl)phenoxy)-2-methylpropionic acid]
EC50 (PPARδ; [2]): 0.038 µM | agonistic activity for PPARδ (EC50 level, in words) (PPARδ): at nanomolar levels | EC50 (PPARγ; [1]): 2.02 µM

Cc1cc(Cn2ncn(-c3ccc(C(F)(F)F)cc3)c2=O)ccc1OC(C)(C)C(=O)O [Compound 77, 2-Methyl-2-(2-methyl-4-((5-oxo-4-(4-(trifluoromethyl)phenyl)-4,5-dihydro-1H-1,2,4-triazol-1-yl)methyl)phenoxy)propionic acid]
EC50 (PPARα): 0.103 µM | EC50 (PPARδ; [2]): 0.132 µM

Cc1cc(OCn2ncn(-c3ccc(C(F)(F)F)cc3)c2=O)cc(C)c1OC(C)(C)C(=O)O [Compound 196, 2-(2,6-Dimethyl-4-((5-oxo-4-(4-(trifluoromethyl)phenyl)-4,5-dihydro-1H-1,2,4-triazol-1-yl)methoxy)phenoxy)-2-methylpropionic acid]
EC50 (PPARα): 0.086 µM | EC50 (PPARδ; [2]): 0.056 µM

CC(C)(Oc1c(Cl)cc(Cn2ncn(-c3ccc(OC(F)(F)F)cc3)c2=O)cc1Cl)C(=O)O [Compound 149, 2-(2,6-Dichloro-4-((5-oxo-4-(4-(trifluoromethoxy)phenyl)-4,5-dihydro-1H-1,2,4-triazo 1-1-yl)methyl)phenoxy)-2-methylpropionic acid]
EC50 (PPARα): 0.007 µM | EC50 (PPARδ; [2]): 0.225 µM

Cc1cc(CCCn2ncn(-c3ccc(C(F)(F)F)cc3)c2=O)cc(C)c1OC(C)(C)C(=O)O [Compound 200, 2-(2,6-Dimethyl-4-(3-(5-oxo-4-(4-(trifluoromethyl)phenyl)-4,5-dihydro-1H-1,2,4-triazol-1-yl)propyl)phenoxy)-2-methylpropionic acid]
EC50 (PPARα): 0.134 µM | EC50 (PPARδ; [2]): 0.212 µM

CC(C)(Oc1ccc(Cn2ncn(-c3ccc(OC(F)(F)F)cc3)c2=O)cc1F)C(=O)O [Compound 151, 2-(2-Fluoro-4-((5-oxo-4-(4-(trifluoromethoxy)phenyl)-4,5-dihydro-1H-1,2,4-triazol-1-yl)methyl)phenoxy)-2-methylpropionic acid]
EC50 (PPARα): 0.22 µM | EC50 (PPARδ; [2]): 0.914 µM

CCc1cc(Cn2ncn(-c3ccc(C(F)(F)F)cc3)c2=O)cc(CC)c1OC(C)(C)C(=O)O [Compound 191, 2-(2,6-Diethyl-4-((5-oxo-4-(4-(trifluoromethyl)phenyl)-4,5-dihydro-1H-1,2,4-triazol-1-yl)methyl)phenoxy)-2-methylpropionic acid]
EC50 (PPARα): 0.044 µM | agonistic activity for PPARα (EC50 level, in words) (PPARα): at nanomolar levels | EC50 (PPARδ; [2]): 0.042 µM | agonistic activity for PPARδ (EC50 level, in words) (PPARδ): at nanomolar levels

Cc1cc(Cn2ncn(-c3ccc(-c4ccccc4)cc3)c2=O)cc(C)c1OC(C)(C)C(=O)O [Compound 117, 2-(4-((4-([1,1′-Biphenyl]-4-yl)-5-oxo-4,5-dihydro-1H-1,2,4-triazol-1-yl)methyl)-2,6-dimethylphenoxy)-2-methylpropionic acid]
EC50 (PPARδ; [2]): 0.135 µM

Cc1cc(SCn2ncn(-c3ccc(C(F)(F)F)cc3)c2=O)cc(C)c1OC(C)(C)C(=O)O [Compound 198, 2-(2,6-Dimethyl-4-(((5-oxo-4-(4-(trifluoromethyl)phenyl)-4,5-dihydro-1H-1,2,4-triazol-1-yl)methyl)thio)phenoxy)-2-methylpropionic acid]
EC50 (PPARα): 0.289 µM | EC50 (PPARγ; [1]): 2.85 µM

CC(C)(Oc1ccc(Cn2ncn(-c3ccc(C(F)(F)F)cc3)c2=O)cc1)C(=O)O [Compound 137, 2-(4-((4-(4-Trifluoromethylphenyl)-5-oxo-4,5-dihydro-1H-1,2,4-triazol-1-yl)methyl)phenoxy)-2-methylpropionic acid]
EC50 (PPARδ; [2]): 1.52 µM

CC(C)(Oc1ccc(Cn2ncn(-c3ccc(C(F)(F)F)cc3)c2=O)cc1C(F)(F)F)C(=O)O [Compound 147]
EC50 (PPARδ; [2]): 0.081 µM | EC50 (PPARγ; [1]): 1.8 µM

CC(C)(Oc1ccc(Cn2ncn(-c3ccc(OC(F)(F)F)cc3)c2=O)cc1)C(=O)O [Compound 153, 2-Methyl-2-(4-((5-oxo-4-(4-(trifluoromethoxy)phenyl)-4,5-dihydro-1H-1,2,4-triazol-1-yl)methyl)phenoxy)propionic acid]
EC50 (PPARα): 0.498 µM | EC50 (PPARδ; [2]): 1.68 µM

CC(C)(Oc1ccc(Cn2ncn(-c3ccc(C(F)(F)F)cc3)c2=O)cc1F)C(=O)O [Compound 123, 2-(2-Fluoro-4-((5-oxo-4-(4-(trifluoromethyl)phenyl)-4,5-dihydro-1H-1,2,4-triazol-1-yl)methyl)phenoxy)-2-methylpropionic acid]
EC50 (PPARα): 0.394 µM | EC50 (PPARδ; [2]): 0.664 µM

Cc1cc(Cn2ncn(-c3ccc(OC(F)(F)F)cc3)c2=O)cc(Cl)c1OC(C)(C)C(=O)O [Compound 145, 2-(2-Chloro-6-methyl-4-((5-oxo-4-(4-(trifluoromethoxy)phenyl)-4,5-dihydro-1H-1,2,4-triazol-1-yl)methyl)phenoxy)-2-methylpropionic acid]
EC50 (PPARα): 0.008 µM | agonistic activity for PPARα (EC50 level, in words) (PPARα): at nanomolar levels | EC50 (PPARδ): 0.029 µM | agonistic activity for PPARδ (EC50 level, in words) (PPARδ): at nanomolar levels

Cc1cc(Cn2ncn(-c3cccc(C(F)(F)F)c3)c2=O)cc(C)c1OC(C)(C)C(=O)O [Compound 121, 2-(2,6-Dimethyl-4-((5-oxo-4-(3-(trifluoromethyl)phenyl)-4,5-dihydro-1H-1,2,4-triazol-1-yl)methyl)phenoxy)-2-methylpropionic acid]
EC50 (PPARδ; [2]): 0.039 µM

Cc1cc(Cn2ncn(-c3ccc(F)cc3)c2=O)cc(C)c1OC(C)(C)C(=O)O [Compound 109, 2-(4-((4-(4-Fluorophenyl)-5-oxo-4,5-dihydro-1H-1,2,4-triazol-1-yl)methyl)-2,6-dimethylphenoxy)-2-methylpropionic acid]
EC50 (PPARα): 0.645 µM | EC50 (PPARδ; [2]): 0.389 µM

CC(C)(Oc1c(F)cc(Cn2ncn(-c3ccc(OC(F)(F)F)cc3)c2=O)cc1F)C(=O)O [Compound 155, 2-(2,6-Difluoro-4-((5-oxo-4-(4-(trifluoromethoxy)phenyl)-4,5-dihydro-1H-1,2,4-triazol-1-yl)methyl)phenoxy)-2-methylpropionic acid]
EC50 (PPARα): 0.351 µM | EC50 (PPARδ; [2]): 1.37 µM

CC(C)(Oc1c(F)cc(Cn2ncn(-c3ccc(C(F)(F)F)cc3)c2=O)cc1F)C(=O)O [Compound 127, 2-(2,6-Difluoro-4-((5-oxo-4-(4-(trifluoromethyl)phenyl)-4,5-dihydro-1H-1,2,4-triazol-1-yl)methyl)phenoxy)-2-methylpropionic acid]
EC50 (PPARδ; [2]): 0.586 µM
